The nature of data set [1]: Retention time of the compound by RP-HPLC analysis. Format: physicochemical.
A short description of data set [2]: Kinetic solubility of compound in phosphate buffer at pH 7.4 by UV analysis. In kind it is physicochemical. The following applies: read-out: Kinetic_solubility.
Data set [3] is described as follows: Octanol/buffer partition coefficient, logD of the compound at pH 7.4 incubated for 24 hrs by shake flask method based UV analysis. Format: physicochemical.
Data set [4] is described as follows: Apparent membrane permeability of the compound in PBS buffer at pH 7.4 measured after 24 hrs by PAMPA assay. Format: ADME.
Data set [5] is described as follows: Kinetic solubility of the compound by RP-HPLC analysis.

Values after ≈ are worked out from the molar mass of the structure shown. Where a SMILES comes first, the peptide text is derived from it. Bridges are numbered along the chain shown (N, C = ends).

In data set [1], H-RWVKRRDYRGDMGFDYWVWE-OH gave a Retention_time of 19.5 min. The solubility kinetic in data set [2] stood at 1800 µM. In data set [3], this compound returned a logD at 24 h of -1.3. Besides, the Papp at 24 h in data set [4] was found to be 0.2 nm/s.

In data set [1], H-RWVWRDYRGDMGFDWVWE-OH registered a Retention_time of 23.3 min. In data set [2], the solubility kinetic amounted to 20 µM. For the same compound, in data set [3], the logD at 24 h came to 0.9. Moreover, the Papp at 24 h in data set [4] was 0.1 nm/s.

As to H-RWVARAYGNYWYIDVWHWE-OH, the Retention_time in data set [1] is on record as 24.1 min. Further, in data set [2], the solubility kinetic was found to be 2 µM. In data set [3], the logD at 24 h was 0.6. Further, in data set [4], the Papp at 24 h is 41.5 nm/s.

On to H-RWVVRRDYRGDMGFDYWVWE-OH, for which, in data set [1], the Retention time came to 20.6 min. Moreover, the solubility kinetic in data set [2] stood at 30 µM. Further, the logD at 24 h in data set [3] is -0.9. Further, the Papp at 24 h in data set [4] worked out at 0.4 nm/s.

In data set [1], H-RWVWRDYRFDMGFDWVWE-OH gave a Retention_time of 25.2 min. The solubility kinetic in data set [2] is 20 µM. The same compound came in with a logD at 24 h in data set [3] of 0.1. Besides, in data set [4], the Papp at 24 h amounted to 52.8 nm/s.

H-RWVARAYGNYGYIDVWHWE-OH yielded a Retention_time in data set [1] of 21.9 min. For the same compound, in data set [2], the solubility kinetic turned out to be 70 µM. For the same compound, the logD at 24 h in data set [3] was -1.3. Further, the Papp at 24 h in data set [4] worked out at 3.8 nm/s.

Take H-RWVARRDYRFDMGFDYWHWE-OH: the Retention_time in data set [1] is 21.8 min. In addition, the solubility kinetic in data set [2] came out at 10 µM. This compound also registered a logD at 24 h in data set [3] of -0.5. The Papp at 24 h in data set [4] came out at 25.5 nm/s.

As to H-RWVARRDYRGDMGFDYWVWE-OH, the Retention_time in data set [1] is 21.5 min. The solubility kinetic in data set [2] turned out to be 20 µM. In data set [3], this compound showed a pH-dependent lipophilicity (logD) at 24 h of 0.6. In addition, the Papp at 24 h in data set [4] is 15.9 nm/s.

Consider H-RWVARRDYRGDMGFDYWHWE-OH, for which the Retention_time in data set [1] is recorded as 20.3 min. Besides, in data set [2], the solubility kinetic was 40 µM. Moreover, in data set [3], the logD at 24 h worked out at 0.7. The Papp at 24 h in data set [4] stood at 0.7 nm/s.

For the compound H-RWVWRDLDIATTRDYWVWE-OH, the Retention_time in data set [1] worked out at 23.2 min. Besides, the solubility kinetic in data set [2] was 140 µM. In addition, the logD at 24 h in data set [3] stood at 0.8. Further, the Papp at 24 h in data set [4] turned out to be 2 nm/s.

H-RGVARRDYRGDPGFDYWHWE-OH displayed a Retention_time in data set [1] of 18.8 min. In addition, the solubility kinetic in data set [2] was 18000 µM. Moreover, in data set [3], the logD at 24 h is -1.9. Besides, the Papp at 24 h in data set [4] came to 2.6 nm/s.

In data set [1], H-RWVARRDYRFDMGFDYWVWE-OH yielded a Retention_time of 23.1 min. For the same compound, in data set [2], the solubility kinetic was 10 µM. In data set [3], this compound showed a logD at 24 h of 0.2. In addition, in data set [4], the Papp at 24 h turned out to be 21.8 nm/s.

In data set [1], H-RWVAREGGWFGELAFNYWVWE-OH yielded a Retention_time of 21.2 min. Besides, in data set [2], the solubility kinetic was found to be 260 µM. This compound yielded a logD at 24 h in data set [3] of -0.5. For the same compound, the Papp at 24 h in data set [4] amounted to 20.5 nm/s.

Take H-RWVVRRDYRFDMGFDYWVWE-OH: the Retention_time in data set [1] amounted to 23 min. Moreover, in data set [2], the solubility kinetic amounted to 20 µM. Also, the logD at 24 h in data set [3] was -1.1. Further, the Papp at 24 h in data set [4] is 26.1 nm/s.

The compound H-RWVWSPDSSGVAYWVWE-OH showed a Retention_time in data set [1] of 22.8 min. The solubility kinetic in data set [2] was 530 µM. Further, the logD at 24 h in data set [3] was 0.9. In data set [4], the Papp at 24 h came to 0.9 nm/s.

With H-RWVAREGMNTDWYFDYWHWE-OH, the Retention_time in data set [1] was 23.3 min. Also, the solubility kinetic in data set [2] was determined as 20 µM. In data set [3], the pH-dependent lipophilicity (logD) at 24 h worked out at 1.2. The apparent permeability coefficient (Papp) at 24 h in data set [4] was 4.2 nm/s.

In turn, `CSCC[C@@H]1NC(=O)[C@H](CC(=O)O)NC(=O)[C@H](Cc2ccccc2)NC(=O)[C@H](CCCNC(=N)N)NC(=O)[C@H](Cc2ccc(O)cc2)NC(=O)[C@H](CC(=O)O)NC(=O)[C@H](CCCNC(=N)N)NC(=O)[C@H](CCCNC(=N)N)NC(=O)[C@H](C)NC(=O)[C@@H](NC(=O)[C@H](Cc2c[nH]c3ccccc23)NC(=O)[C@@H](N)CCCNC(=N)N)CSSC[C@@H](C(=O)N[C@@H](Cc2c[nH]c3ccccc23)C(=O)N[C@@H](CCC(=O)O)C(=O)O)NC(=O)[C@H](Cc2c[nH]c3ccccc23)NC(=O)[C@H](Cc2ccc(O)cc2)NC(=O)[C@H](CC(=O)O)NC(=O)[C@H](Cc2ccccc2)NC(=O)CNC1=O` (H-RWCARRDYRFDMGFDYWCWE-OH; disulfide 3-18) came in with a Retention_time in data set [1] of 22 min. In data set [2], the solubility kinetic came to 10 µM (≈ 27.6 µg/mL). In data set [3], the logD at 24 h was -0.6. For the same compound, the Papp at 24 h in data set [4] stood at 37.1 nm/s.

In turn, H-RWVAREGMNTDGYFDYWHWE-OH displayed a Retention_time in data set [1] of 21.1 min. Besides, the solubility kinetic in data set [2] stood at 690 µM. This compound also registered a log distribution coefficient (logD) at 24 h in data set [3] of 0.3. For the same compound, the Papp at 24 h in data set [4] was 0.2 nm/s.

In the case of `CC(=O)CC(c1ccccc1)c1c(O)c2ccccc2oc1=O` (stereo not given) [WARFARIN], the Papp at 24 h in data set [4] was 70.6 nm/s.

In the case of H-RWVKRRDYRFDMGFDYWVWE-OH, in data set [2], the solubility kinetic is 20 µM. Further, the kinetic solubility in data set [5] was determined as 21900 µM. This compound also displayed a pH-dependent lipophilicity (logD) at 24 h in data set [3] of -0.4. Also, in data set [4], the Papp at 24 h came out at 1.4 nm/s.

In turn, H-RWVARRDYRFDMGFNYWVWE-OH returned a Retention_time in data set [1] of 22.6 min. In data set [2], the solubility kinetic was determined as 50 µM. The logD at 24 h in data set [3] came out at 0.7. Besides, in data set [4], the Papp at 24 h amounted to 40.4 nm/s.

On to H-RWVARRDYRGDMGFNYWVWE-OH, for which the Retention_time in data set [1] turned out to be 20.9 min. Also, in data set [2], the solubility kinetic stood at 60 µM. The logD at 24 h in data set [3] was -0.8. In addition, the Papp at 24 h in data set [4] turned out to be 0.2 nm/s.

The values above are taken from ChEMBL document CHEMBL5257058, “Passive Membrane Permeability of Sizable Acyclic β-Hairpin Peptides” (ACS Med Chem Lett, 2023).
